Data: article PMC4172917, “Synergy of crude enzyme cocktail from cold-adapted Cladosporium cladosporioides Ch2-2 with commercial xylanase achieving high sugars yield at low cost” (Biotechnology for Biofuels, 2014)

Columns and labels:
laccase = details: optimal conditions (15°C, pH 3.5), but b56 states 28°C and 10 to 40 mmol/L substrate; sodium acetate buffer
[1] = tested on: T1, MIP (manganese-independent peroxidase); test: initial rates, oxidation of DMP at […] nm; type: biochemical, Cladosporium cladosporioides; details: without H2O2 and Mn2+; optimal conditions (20°C, pH 2.5), but b56 states 28°C and 10 to 40 mmol/L substrate; malonate buffer; compound identity doubtful: DMP is spelt out as dimethyl phthalate
T1 construct: native enzyme purified from culture supernatant (ammonium sulfate, DEAE-Sephadex A 50, CM-Sephadex C 50, Sephadex G-75); about 47 kDa by SDS-PAGE

For `CCn1c(=NN=c2sc3cc(S(=O)(=O)O)ccc3n2CC)sc2cc(S(=O)(=O)O)ccc21` [ABTS], the Km (laccase) was 2.8 µM.
Compound `COc1cccc(OC)c1O` [DMP] has a Km [1] of 6.9 µM.
